According to US7750017B2, “Heterocycles” (Bayer Schering Pharma Aktiengesellschaft, priority 2004, dated 2010):
pIC50: −log10 of the molar value. Counter-ions that a name gives are not always drawn.

Experiments:
[1] = system: A431 cells [human epidermoid carcinoma, overexpressing HER1 (EGFR, ErbB1)]; assay: In vitro tumor cell proliferation assay (Cell Titer-Glo luminescent cell viability), A431 cells; format: cell-based; details: A-431, 72 h, 72 hours of drug exposure, Cell Titer-Glo readout, read-out: IC50, anti-proliferative activity in A431 cells
[2] = system: BT474 [human breast carcinoma, overexpressing HER2 (ErbB2)]; assay: In vitro tumor cell proliferation assay (Cell Titer-Glo luminescent cell viability), BT474 cells; format: cell-based; details: BT-474, 72 h, 72 hours of drug exposure, Cell Titer-Glo readout, read-out: IC50, anti-proliferative activity in BT474 cells

Q: `CN1CCN(C(=O)Cc2ccc3c(c2)sc2ncnc(Nc4ccc5c(cnn5Cc5cccc(F)c5)c4)c23)CC1` [Example 124, N-[1-(3-fluorobenzyl)-1H-indazol-5-yl]-7-[2-(4-methylpiperazin-1-yl)-2-oxoethyl][1]benzothieno[2,3-d] pyrimidin-4-amine] was tested. Which pIC50 [1] did it give?
A: The pIC50 was ≥ 5.30.

Q: What about the pIC50 [2] of the same compound?
A: Its pIC50 is ≥ 6.30.

Q: With `COC[C@@H]1CCCN1C(=O)Cc1ccc2c(c1)sc1ncnc(Nc3ccc(OCc4ccccn4)c(Cl)c3)c12` [Example 107, N-[3-chloro-4-(pyridin-2-ylmethoxy)phenyl]-7-{2-[2-(methoxymethyl)pyrrolidin-1-yl]-2-oxoethyl}[1]benzothieno[2,3-d] pyrimidin-4-amine] as the compound, how does the pIC50 [1] read?
A: Its pIC50 is ≥ 5.30.

Q: What about the pIC50 [2] of the same compound?
A: The pIC50 was ≥ 5.30.

Q: `CN(C)[C@H]1CCN(C(=O)Cc2ccc3c(c2)sc2ncnc(Nc4ccc(OCc5cscn5)c(Cl)c4)c23)C1` [Example 143, N-[3-chloro-4-(1,3-thiazol-4-ylmethoxy)phenyl]-7-{2-[(3S)-3-(dimethylamino)pyrrolidin-1-yl]-2-oxoethyl}[1]benzothieno[2,3-d] pyrimidin-4-amine] was tested. Which pIC50 [1] did it give?
A: The pIC50 was ≥ 5.30.

Q: And the pIC50 [2]?
A: Its pIC50 is ≥ 6.30.

Q: What does the source list for `COCCN(CCOC)CCc1ccc2c(c1)sc1ncnc(Nc3ccc(OCc4cccc(F)c4)c(Cl)c3)c12` [Example 6, 7-{2-[bis(2-methoxyethyl)amino]ethyl}-N-{3-chloro-4-[(3-fluorobenzyl)oxy]phenyl}[1] benzothieno[2,3-d]pyrimidin-4-amine]?
A: pIC50 [1]: ≥ 5.30; pIC50 [2]: ≥ 6.30

Q: `Fc1cccc(COc2ccc(Nc3ncnc4sc5cc(OCCN6CCOCC6)ccc5c34)cc2Cl)c1` [Example 38, N-{3-chloro-4-[(3-fluorobenzyl)oxy]phenyl}-7-(2-morpholin-4-ylethoxy) [1]benzothieno[2,3-d]pyrimidin-4-amine] was tested. Which pIC50 [1] did it give?
A: Its pIC50 is ≥ 5.30.

Q: What about the pIC50 [2] of the same compound?
A: The pIC50 was ≥ 6.30.

Q: With `O=C(Cc1ccc2c(c1)sc1ncnc(Nc3ccc(OCc4cscn4)c(Cl)c3)c12)NCCOCCO` [Example 145, 2-(4-{[3-chloro-4-(1,3-thiazol-4-ylmethoxy)phenyl]amino}[1]benzothieno[2,3-d]pyrimidin-7-yl)-N-[2-(2-hydroxyethoxy)ethyl] acetamide] as the compound, how does the pIC50 [1] read?
A: The pIC50 was ≥ 4.30.

Q: And the pIC50 [2]?
A: Its pIC50 is ≥ 5.30.

Q: What does the source list for `Fc1cccc(COc2ccc(Nc3ncnc4sc5cc(OCCCN6CCOCC6)ccc5c34)cc2Cl)c1` [Example 39, N-{3-chloro-4-[(3-fluorobenzyl)oxy]phenyl}-7-(3-morpholin-4-ylpropoxy)[1] benzothieno[2,3-d]pyrimidin-4-amine]?
A: pIC50 [1]: ≥ 5.30; pIC50 [2]: ≥ 6.30

Q: What does the source list for `CCOC(=O)C(Oc1ccc2c(c1)sc1ncnc(Nc3ccc(OCc4cccc(F)c4)c(Cl)c3)c12)C(=O)OCC` [Example 42, diethyl {[4-({3-chloro-4-[(3-fluorobenzyl)oxy]phenyl}amino)[1]benzothieno[2,3-d]pyrimidin-7-yl]oxy}malonate trifluoroacetate]?
A: pIC50 [1]: ≥ 4.30; pIC50 [2]: ≥ 5.30

Q: With `OCC(CO)Oc1ccc2c(c1)sc1ncnc(Nc3ccc(OCc4cccc(F)c4)c(Cl)c3)c12` [Example 43, 2-{[4-({3-chloro-4-[(3-fluorobenzyl)oxy]phenyl}amino) [1]benzothieno[2,3-d]pyrimidin-7-yl]oxy}propane-1,3-diol trifluoroacetate (salt)] as the compound, how does the pIC50 [1] read?
A: Its pIC50 is ≥ 4.30.

Q: And the pIC50 [2]?
A: Its pIC50 is ≥ 6.30.

Q: What does the source list for `OC/C=C/c1ccc2c(c1)sc1ncnc(Nc3ccc(OCc4cccc(F)c4)c(Cl)c3)c12` [Example 61, (2E)-3-[4-({3-chloro-4-[(3-fluorobenzyl)oxy]phenyl}amino)[1]benzothieno[2,3-d]pyrimidin-7-yl]prop-2-en-1-ol]?
A: pIC50 [1]: ≥ 4.30; pIC50 [2]: ≥ 6.30

Q: With `Fc1cccc(COc2ccc(Nc3ncnc4sc5cc(CCN6CCSCC6)ccc5c34)cc2Cl)c1` [Example 15, N-{3-chloro-4-[(3-fluorobenzyl)oxy]phenyl}-7-(2-thiomorpholin-4-ylethyl)[1] benzothieno[2,3-d]pyrimidin-4-amine] as the compound, how does the pIC50 [1] read?
A: The pIC50 was ≥ 5.30.

Q: And the pIC50 [2]?
A: Its pIC50 is ≥ 6.30.

Q: Which results are given for `CN(C)CCNC(=O)Cc1ccc2c(c1)sc1ncnc(Nc3ccc(OCc4ccccn4)c(Cl)c3)c12` [Example 100, 2-(4-{[3-chloro-4-(pyridin-2-ylmethoxy)phenyl]amino}[1]benzothieno[2,3-d]pyrimidin-7-yl)-N-[(2-dimethylamino)ethyl]acetamide]?
A: pIC50 [1]: ≥ 4.30; pIC50 [2]: ≥ 6.30

Q: With `COCCN1CCN(CCc2ccc3c(c2)sc2ncnc(Nc4ccc(OCc5cccc(F)c5)c(Cl)c4)c23)CC1` [Example 12, N-{3-chloro-4-[(3-fluorobenzyl)oxy]phenyl}-7-{2-[4-(2-methoxyethyl)piperazin-1-yl]ethyl}[1]benzothieno [2,3-d]pyrimidin-4-amine] as the compound, how does the pIC50 [1] read?
A: Its pIC50 is ≥ 5.30.

Q: And the pIC50 [2]?
A: Its pIC50 is ≥ 6.30.

Q: With `OC[C@H](O)COc1ccc2c(c1)sc1ncnc(Nc3ccc(OCc4cccc(F)c4)c(Cl)c3)c12` [Example 36, (2S)-3-{[4-({3-chloro-4-[(3-fluorobenzyl)oxy]phenyl}amino)[1]benzothieno[2,3-d]pyrimidin-7-yl]oxy}propane-1,2-diol] as the compound, how does the pIC50 [1] read?
A: The pIC50 was ≥ 5.30.

Q: What about the pIC50 [2] of the same compound?
A: The pIC50 was ≥ 6.30.

Q: `Fc1cccc(COc2ccc(Nc3ncnc4sc5cc(CCN6CCNCC6)ccc5c34)cc2Cl)c1` [Example 23, N-{3-chloro-4-[(3-fluorobenzyl)oxy]phenyl}-7-(2-piperazin-1-ylethyl)[1]benzothieno [2,3-d]pyrimidin-4-amine] was tested. Which pIC50 [1] did it give?
A: Its pIC50 is ≥ 5.30.

Q: What about the pIC50 [2] of the same compound?
A: The pIC50 was ≥ 6.30.

Q: How did the pIC50 [1] turn out when `Fc1cccc(COc2ccc(Nc3ncnc4sc5cc(OCCN6CCCC6)ccc5c34)cc2Cl)c1` [Example 41, N-{3-chloro-4-[(3-fluorobenzyl)oxy]phenyl}-7-(2-pyrrolidin-1-ylethoxy)[1] benzothieno[2,3-d]pyrimidin-4-amine] was run?
A: Its pIC50 is ≥ 5.30.

Q: What about the pIC50 [2] of the same compound?
A: Its pIC50 is ≥ 6.30.

Q: With `CN1CCN(C(=O)Cc2ccc3c(c2)sc2ncnc(Nc4ccc(OCc5cccc(F)c5)c(Cl)c4)c23)CC1` [Example 32, N-{3-chloro-4-[(3-fluorobenzyl)oxy]phenyl}-7-[2-(4-methylpiperazin-1-yl)-2-oxoethyl][1]benzothieno[2,3-d] pyrimidin-4-amine] as the compound, how does the pIC50 [1] read?
A: The pIC50 was ≥ 5.30.

Q: What about the pIC50 [2] of the same compound?
A: Its pIC50 is ≥ 6.30.

Q: `C=Cc1ccc2c(c1)sc1ncnc(Nc3ccc4c(cnn4Cc4ccccn4)c3)c12` [Example 130, N-[1-(pyridin-2-ylmethyl)-1H-indazol-5-yl]-7-vinyl[1] benzothieno[2,3-d]pyrimidin-4-amine] was tested. Which pIC50 [1] did it give?
A: Its pIC50 is ≥ 4.30.

Q: And the pIC50 [2]?
A: The pIC50 was ≥ 6.30.

Q: Which results are given for `CCN1CCN(C(=O)CCc2ccc3c(c2)sc2ncnc(Nc4ccc(OCc5cccc(F)c5)c(Cl)c4)c23)CC1` [Example 67, N-{3-chloro-4-[(3-fluorobenzyl)oxy]phenyl}-7-[3-(4-ethylpiperazin-1-yl)-3-oxopropyl][1]benzothieno[2,3-d] pyrimidin-4-amine]?
A: pIC50 [1]: ≥ 4.30; pIC50 [2]: ≥ 5.30

Q: What does the source list for `CCN1CCN(C(=O)[C@H](O)[C@@H](O)c2ccc3c(c2)sc2ncnc(Nc4ccc(OCc5cccc(F)c5)c(Cl)c4)c23)CC1` [Example 57, (1S,2R)-1-[4-({3-chloro-4-[(3-fluorobenzyl)oxy]phenyl}amino) [1]benzothieno[2,3-d]pyrimidin-7-yl]-3-(4-ethylpiperazin-1-yl)-3-oxopropane-1,2-diol]?
A: pIC50 [1]: ≥ 4.30; pIC50 [2]: ≥ 5.30

Q: With `CCOC(=O)Cc1ccc2c(c1)sc1ncnc(Nc3ccc(OCc4cscn4)c(Cl)c3)c12` [Example 134, ethyl (4-{[3-chloro-4-(1,3-thiazol-4-ylmethoxy)phenyl]amino}[1]benzothieno[2,3-d]pyrimidin-7-yl)acetate] as the compound, how does the pIC50 [1] read?
A: The pIC50 was ≥ 4.30.

Q: What about the pIC50 [2] of the same compound?
A: The pIC50 was ≥ 5.30.

Q: What does the source list for `OC[C@@H](O)COc1ccc2c(c1)sc1ncnc(Nc3ccc(OCc4ccccn4)c(Cl)c3)c12` [Example 111, (2R)-3-[(4-{[3-chloro-4-(pyridin-2-ylmethoxy)phenyl]amino}[1]benzothieno[2,3-d]pyrimidin-7-yl)oxy]propane-1,2-diol]?
A: pIC50 [1]: ≥ 4.30; pIC50 [2]: ≥ 6.30

Q: `COCCCNc1ccc2c(c1)sc1ncnc(Nc3ccc(OCc4ccccn4)c(Cl)c3)c12` [Example 79, N4-[3-chloro-4-(pyridin-2-ylmethoxy)phenyl]-N7-(3-methoxypropyl)[1]benzothieno [2,3-d]pyrimidine-4,7-diamine trifluoroacetate] was tested. Which pIC50 [1] did it give?
A: Its pIC50 is ≥ 4.30.

Q: And the pIC50 [2]?
A: Its pIC50 is ≥ 5.30.

Q: What does the source list for `CS(=O)(=O)CCNCCc1ccc2c(c1)sc1ncnc(Nc3ccc(OCc4cccc(F)c4)c(Cl)c3)c12` [Example 4, N-{3-chloro-4-[(3-fluorobenzyl)oxy]phenyl}-7-(2-{[2-(methylsulfonyl)ethyl]amino}ethyl)[1]benzothieno[2,3-d] pyrimidin-4-amine]?
A: pIC50 [1]: ≥ 4.30; pIC50 [2]: ≥ 6.30

Q: How did the pIC50 [1] turn out when `C=Cc1ccc2c(c1)sc1ncnc(Nc3ccc(OCc4cccc(F)c4)c(Cl)c3)c12` [Example 14, N-{3-chloro-4-[(3-fluorobenzyl)oxy]phenyl}-7-vinyl[1]benzothieno[2,3-d]pyrimidin-4-amine] was run?
A: Its pIC50 is ≥ 4.30.

Q: And the pIC50 [2]?
A: The pIC50 was ≥ 6.30.

Q: What does the source list for `OCCNCCc1ccc2c(c1)sc1ncnc(Nc3ccc(OCc4cccc(F)c4)c(Cl)c3)c12` [Example 22, 2-({2-[4-({3-chloro-4-[(3-fluorobenzyl)oxy]phenyl}amino) [1]benzothieno [2,3-d]pyrimidin-7-yl]ethyl}amino)ethanol]?
A: pIC50 [1]: ≥ 5.30; pIC50 [2]: ≥ 6.30

Q: How did the pIC50 [1] turn out when `O=C(Cc1ccc2c(c1)sc1ncnc(Nc3ccc(OCc4cscn4)c(Cl)c3)c12)NCCCN1CCOCC1` [Example 139, 2-(4-{[3-chloro-4-(1,3-thiazol-4-ylmethoxy)phenyl]amino}[1]benzothieno[2,3-d]pyrimidin-7-yl)-N-(3-morpholin-4-ylpropyl) acetamide] was run?
A: Its pIC50 is ≥ 4.30.

Q: And the pIC50 [2]?
A: The pIC50 was ≥ 5.30.

Q: `OC[C@H](O)c1ccc2c(c1)sc1ncnc(Nc3ccc(OCc4cccc(F)c4)c(Cl)c3)c12` [Example 27, (1R)-1-[4-({3-chloro-4-[(3-fluorobenzyl)oxy]phenyl}amino) [1]benzothieno[2,3-d]pyrimidin-7-yl]ethane-1,2-diol] was tested. Which pIC50 [1] did it give?
A: Its pIC50 is ≥ 5.30.

Q: And the pIC50 [2]?
A: The pIC50 was ≥ 6.30.

Q: Which results are given for `CS(=O)(=O)CCNCCc1ccc2c(c1)sc1ncnc(Nc3ccc(OCc4ccccn4)c(Cl)c3)c12` [Example 85, N-[3-chloro-4-(pyridin-2-ylmethoxy)phenyl]-7-(2-{[2-(methylsulfonyl)ethyl]amino}ethyl) [1]benzothieno[2,3-d]pyrimidin-4-amine trifluoroacetate]?
A: pIC50 [1]: ≥ 5.30; pIC50 [2]: ≥ 6.30
